Literature values, collected in patent publication US6356845B1, “Crystallization and structure determination of Staphylococcus aureus UDP-N-acetylenolpyruvylglucosamine reductase (S. aureus MurB)” (priority 1999, dated 2002).

Target: T1, S. aureus MurB (Staphylococcus aureus, UniProt P61431)
T1 construct: His6; made in house; host or cells: E. coli K12S (F' lacIq), plasmid pQE-10 murB obtained from Human Genome Sciences
Details: read-out: Km for EP-UDPGlcNAc with S. aureus MurB; substrate Km; S. Swaney, personal communication

## C=C(O[C@H]1[C@H](O)[C@@H](CO)O[C@H](OP(=O)(O)OP(=O)(O)OC[C@H]2O[C@@H](n3ccc(=O)[nH]c3=O)[C@H](O)[C@@H]2O)[C@@H]1NC(C)=O)C(=O)O [EP-UDPGlcNAc, Uridine diphospho-N-acetylglucosamine enolpyruvate]
  Km: 15 µM
